Laboratory results published in patent US8129532B2, “Amino(oligo)thiophene dyes, preparation thereof, and optical methods of use” (The University of Connecticut, priority 2007, dated 2012).

Tested on: layer V pyramidal neurons
Test: Voltage-sensitive dye imaging of action potentials in intracellularly stained pyramidal neurons in brain slices
Format: cell-based, Sprague Dawley rats
Conditions: for dF/F at 658 nm / dF/F at 633 nm: backpropagating AP, %; for dF/F at 658 nm / voltage sensitivity compared with red dye / dF/F at 633 nm: basal dendrites 80-150 μm from soma; for dF/F at 658 nm / S/N ratio at 658 nm: laser spot 658 nm; for dF/F at 633 nm / S/N ratio at 633 nm: laser spot 633 nm
Source text: Sprague Dawley rats (P21-42) were anesthetized with isoflurane, decapitated, and the brains were removed with the head immersed in ice-cold, artificial cerebrospinal fluid (ACSF), according to an animal protocol approved by the Center for Laboratory Animal Care, University of Connecticut. Brain slices (300 μm) were cut from frontal lobes in the coronal plane. ACSF contained (in mM) 125 NaCl, 26 NaHCO3, 10 glucose, 2.3 KCl, 1.26 KH2PO4, 2 CaCl2 and 1 MgSO4, pH 7.4. Whole-cell recordings were made from visually identified layer V pyramidal neurons on the medial part of the slice. Intracellular solution contained (in mM) 135 K-gluconate, 2 MgCl2, 3 Na2-ATP, 10 Na2-phosphocreatine, 0.3 Na2-GTP and 10 Hepes (pH 7.3, adjusted with KOH). Electrical signals were amplified with Multiclamp 700A and digitized with two input boards: (1) Digidata Series 1322A (Axon Instruments) at 5 kHz, and (2) Neuroplex (RedShirtImaging) at 2.7 kHz sampling rate. Only cells with a membrane potential more hyperpolarized than −50 mV, and action potential amplitudes exceeding 80 mV (measured from the base line) were included in this study. All experiments were performed on layer 5 cortical pyramidal cells at 34° C.
Blue dyes were stored in ethanol stock solution at −20° C. On the day of the recording blue dyes were dissolved in standard K-gluconate based intracellular solution. A loading pipette was filled with two varieties of the same intracellular solution; one with and one without dye. Dye-free solution was occupying the very tip of the pipette, while the back of the pipette lumen was microloaded with dye-rich solution. The purpose of dye-free solution in the tip of the patch pipette was to prevent dye-leak during the maneuver through brain slice tissue. VSD styryl dyes are lipophilic and bind indiscriminately and irreversibly to all membranes around the neuron of interest. Even a small amount of dye that leaks out of the pipette during the formation of the gigaohm seal, can generate strong fluorescent background. Fluorescent light emanating from surrounding tissue has a devastating effect on dendritic optical signals. Elimination of the background fluorescence is critical for dendritic voltage imaging. How much dye-free solution one should put in the tip depends on time period between the submersion of the patch pipette into the recording chamber and formation of the gigaohm seal. The faster one can perform this maneuver the less dye-free solution she needs to achieve optimal staining.
Blue VSD were injected at room temperature for 25-60 minutes. The filling pipette was carefully pulled out (outside-out patch) and brain slices were left to incubate for 20-120 minutes at room temperature. Just before optical recordings the cells were re-patched with dye-free pipette at the physiological temperature (34° C.).
Voltage-sensitive dye imaging was performed on a Zeiss Axioskope 2FS microscope equipped with NeuroCCD camera (RedShirtImaging). We used Zeiss 40× objective IR-Achroplan 0.80 W. The size of the square visual field captured by NeuroCCD camera was 384×384 um. In the place of the arc lamp (normally used for epi-illumination), we inserted a 200 μm fiber optic guide with a collimator. Laser beam was focused on the other side of the fiber optic guide using a microscope objective-like lens. This arrangement produced a motionless spot of laser light (˜25 μm in diameter) at the object plane. An illuminated section of the brain slice, projected onto the NeuroCCD camera, covered approximately 25 pixels when used with 40× objective lens. At this magnification, one pixel sampled a 4.8×4.8 square in the object plane. A region of interest (ROI) was brought into the laser spot using X-Y microscope platform. The laser beam was interrupted by an electro-programmable shutter (Uniblitz®). Attention was made to limit the exposure time during the recording and positioning of the neuron.

SMILES	dF/F at 658 nm [%]	voltage sensitivity compared with red dye	S/N ratio at 658 nm	dF/F at 633 nm [%]	S/N ratio at 633 nm	polarity of optical signal at 532 nm excitation	polarity of optical signal at 658 nm excitation
CCN(CC)c1ccc(-c2ccc(/C=C/c3cc[n+](CCC[N+](CC)(CC)CC)cc3)s2)s1 [PY-1261, Di-2-BTEPPTEA]	7.91 ± 1.57	better sensitivity than red dye JPW-3028	5.38 ± 1.86	–	–	–	–
CCCN(CCC)c1ccc(-c2ccc(/C=C/c3cc[n+](CCC[N+](CC)(CC)CC)cc3)s2)s1 [PY-1286, Di-3-BTEPPTEA]	7.64 ± 2.20	better sensitivity than red dye JPW-3028	5.13±2.31	13.67 ± 2.89	4.53 ± 0.95	–	–
CCCCN(CCCC)c1ccc(-c2ccc(/C=C/c3cc[n+](CCC[N+](CC)(CC)CC)cc3)s2)s1 [PY-1266, Di-4-BTEPPTEA]	8.32 ± 2.13	better sensitivity than red dye JPW-3028	5.22 ± 1.32	10.41 ± 2.80	4.77 ± 1.35	positive signals	positive signals
